Assay results: patent US11807649B2, “Fused tetracyclic quinazoline derivatives as inhibitors of ErbB2” (EnLiven Therapeutics, Inc., priority 2021, dated 2023)

Each molecule was assayed on Ba/F3 ERBB2 YVMA (assay: Cell viability assay (CellTiter Glo), Ba/F3 cells engineered to express ERBB2 YVMA). Settings: Mus musculus, BaF3, 72 h, Ba/F3 cells expressing human ERBB2 YVMA mutant; 72 hours; cell viability, CellTiter Glo; read-out: Ba/F3 ERBB2 YVMA, IC50.
Type: cell-based
Experimental: Cells were treated with compounds, and cell viability was measured as a metric of kinase inhibition.
BT-474, A431, MDA-MB-175VII, NCI-H1781, MCF7, and Ba/F3 cell lines were tested. The Ba/F3 cell line is IL-3-dependent mouse cell line derived from the C3H mouse strain. Ba/F3 cell lines were engineered to express human ERBB2 or EGFR kinases, rendering the cells IL-3 independent. The lines were generated via retroviral transduction utilizing a Moloney murine leukemia virus (MMLV) promoter, and constructs are stably integrated into the cell genome. The sequences of the ERBB2 and EGFR genes used were NCBI Reference Sequences NM 004448.3 and NM 005228.3, respectively.
BT-474, A431, MDA-MB-175VII, NCI-H1781 and MCF7 cells were grown in the appropriate growth medium as described in Table B2 below, and harvested at 50-80% confluence. BT-474, A431, MDA-MB-175VII, NCI-H1781 and MCF7 cells were counted and seeded at 2,000 or 1,500 cells per well in 384-well tissue culture plates (see Table B2). Similarly, Ba/F3 cell lines engineered to express EGFR, ERBB2, or ERBB2 mutants were grown, harvested, counted and seeded at 3000 cells per well in 96-well plates. A subset of wells contained media only (low control, “LC”).
Table B1 provides the growth media and number of cells seeded per well for the each cell line.
Compounds were dissolved in DMSO and serially diluted. Serially-diluted compound or a DMSO only control (high control, “HC”) was added to the plated cells in each well. Compounds were tested at concentrations of about 10 μM to 0.51 nM, using three-fold dilutions. The final proportion of DMSO never exceeded 0.1%.
Plates were placed in a 37° C., 5% CO2 incubator for 72 hours. Plates were then removed from the incubator and equilibrated for 15 minutes at room temperature. […] of CellTiter Glo reagent (Promega) was added to measure the relative level of metabolically active cells by quantifying intracellular ATP concentrations. Plates were incubated for 30 minutes at room temperature, and luminescence was measured. Percent viability was normalized to a vehicle control only using the following formula: % viability=100×(Lumsample−LumLC)/(LumHC−LumLC). Graphical curves were fitted using a nonlinear regression model with a sigmoidal dose response.

Row | SMILES | IC50 [nM]
1 | CN(C)C/C=C/C(=O)N1CCN2C[C@H]1COc1cc3ncnc(Nc4ccc(Oc5ccn6ncnc6c5)c(Cl)c4)c3nc12 [Compound 32, (E)-1-((10S)-4-((4-([1,2,4]triazolo[1,5-a]pyridin-7-yloxy)-3-chlorophenyl)amino)-7,8,10,11-tetrahydro-9H-6,10-methanopyrimido[4′,5′:5,6]pyrido[3,2-b][1,4,7]oxadiazonin-9-yl)-4-(dimethylamino)but-2-en-1-one] | 4.54
2 | Cc1cc(Nc2ncnc3cc4c(nc23)N2CCN(C(=O)/C=C/CN(C)C)[C@H](CO4)C2)ccc1Oc1ccn2ccnc2c1 [Compound 34, (E)-4-(dimethylamino)-1-((10S)-4-((4-(imidazo[1,2-a]pyridin-7-yloxy)-3-methylphenyl)amino)-7,8,10,11-tetrahydro-9H-6,10-methanopyrimido[4′,5′:5,6]pyrido[3,2-b][1,4,7]oxadiazonin-9-yl)but-2-en-1-one] | 7.18
3 | Cc1c(Oc2ccn3ncnc3c2)ccc(Nc2ncnc3cc4c(nc23)N2CCN(C(=O)/C=C/CN(C)C)[C@H](CO4)C2)c1F [Compound 35, (E)-1-((10S)-4-((4-([1,2,4]triazolo[1,5-a]pyridin-7-yloxy)-2-fluoro-3-methylphenyl)amino)-7,8,10,11-tetrahydro-9H-6,10-methanopyrimido[4′,5′:5,6]pyrido[3,2-b][1,4,7]oxadiazonin-9-yl)-4-(dimethylamino)but-2-en-1-one] | 1.29
4 | CN(C)C/C=C/C(=O)N1CCN2C[C@H]1COc1cc3ncnc(Nc4ccc(Oc5ccn6ncnc6c5)c(F)c4)c3nc12 [Compound 39, (E)-1-((10S)-4-((4-([1,2,4]triazolo[1,5-a]pyridin-7-yloxy)-3-fluorophenyl)amino)-7,8,10,11-tetrahydro-9H-6,10-methanopyrimido[4′,5′:5,6]pyrido[3,2-b][1,4,7]oxadiazonin-9-yl)-4-(dimethylamino)but-2-en-1-one] | 5.54
5 | Cc1cc(Nc2ncnc3cc4c(c(F)c23)N2CCN(C(=O)/C=C/CN(C)C)[C@H](CO4)C2)ccc1Oc1ccn2ncnc2c1 [Compound 40, (E)-1-((10S)-4-((4-([1,2,4]triazolo[1,5-a]pyridin-7-yloxy)-3-methylphenyl)amino)-5-fluoro-7,8,10,11-tetrahydro-9H-6,10-methano[1,4,7]oxadiazonino[3,2-g]quinazolin-9-yl)-4-(dimethylamino)but-2-en-1-one] | 29.4
6 | Cc1cc(Nc2ncnc3cc4c(nc23)N2CCN(C(=O)/C=C/[C@H]3CCCN3C)[C@H](CO4)C2)c(F)cc1Oc1ccn2ncnc2c1 [Compound 41, (E)-1-((10S)-4-((4-([1,2,4]triazolo[1,5-a]pyridin-7-yloxy)-2-fluoro-5-methylphenyl)amino)-7,8,10,11-tetrahydro-9H-6,10-methanopyrimido[4′,5′:5,6]pyrido[3,2-b][1,4,7]oxadiazonin-9-yl)-34-((R)-1-methylpyrrolidin-2-yl)prop-2-en-1-one] | 8.67
7 | CN(C)C/C=C/C(=O)N1CCN2C[C@H]1COc1cc3ncnc(Nc4ccc(Oc5ccn6ncnc6c5)cc4F)c3nc12 [Compound 42, (E)-1-((10S)-4-((4-([1,2,4]triazolo[1,5-a]pyridin-7-yloxy)-2-fluorophenyl)amino)-7,8,10,11-tetrahydro-9H-6,10-methanopyrimido[4′,5′:5,6]pyrido[3,2-b][1,4,7]oxadiazonin-9-yl)-4-(dimethylamino)but-2-en-1-one] | 10.3
8 | CN(C)C/C=C/C(=O)N1CCN2C[C@H]1COc1cc3ncnc(Nc4cc(Cl)c(Oc5ccn6ncnc6c5)cc4F)c3nc12 [Compound 43, (E)-1-((10S)-4-((4-([1,2,4]triazolo[1,5-a]pyridin-7-yloxy)-5-chloro-2-fluorophenyl)amino)-7,8,10,11-tetrahydro-9H-6,10-methanopyrimido[4′,5′:5,6]pyrido[3,2-b][1,4,7]oxadiazonin-9-yl)-4-(dimethylamino)but-2-en-1-one] | 4.65
9 | Cc1cc(Nc2ncnc3cc4c(nc23)N2CCN(C(=O)/C=C/CN(C)C)[C@H](CO4)C2)c(F)cc1Oc1cncc(F)c1 [Compound 44] | 9.18
10 | Cc1cc(Nc2ncnc3cc4c(nc23)N2CCN(C(=O)/C=C/C3CN(C)C3)[C@H](CO4)C2)ccc1Oc1ccn2ncnc2c1 [Compound 45, (E)-1-((10S)-4-((4-([1,2,4]triazolo[1,5-a]pyridin-7-yloxy)-3-methylphenyl)amino)-7,8,10,11-tetrahydro-9H-6,10-methanopyrimido[4′,5′:5,6]pyrido[3,2-b][1,4,7]oxadiazonin-9-yl)-3-(1-methylazetidin-3-yl)prop-2-en-1-one] | 46.7
11 | Cc1cc(Nc2ncnc3cc4c(nc23)N2CCN(C(=O)/C=C/[C@H](C)N(C)C)[C@H](CO4)C2)c(F)cc1Oc1ccn2ncnc2c1 [Compound 47, (4S,E)-1-((10S)-4-((4-([1,2,4]triazolo[1,5-a]pyridin-7-yloxy)-2-fluoro-5-methylphenyl)amino)-7,8,10,11-tetrahydro-9H-6,10-methanopyrimido[4′,5′:5,6]pyrido[3,2-b][1,4,7]oxadiazonin-9-yl)-4-(dimethylamino)pent-2-en-1-one] | 13
12 | CNC/C=C/C(=O)N1CCN2C[C@H]1COc1cc3ncnc(Nc4cc(C)c(Oc5ccn6ncnc6c5)cc4F)c3nc12 [Compound 49, (E)-1-((10S)-4-((4-([1,2,4]triazolo[1,5-a]pyridin-7-yloxy)-2-fluoro-5-methylphenyl)amino)-7,8,10,11-tetrahydro-9H-6,10-methanopyrimido[4′,5′:5,6]pyrido[3,2-b][1,4,7]oxadiazonin-9-yl)-4-(methylamino)but-2-en-1-one] | 37.6
13 | Cc1cc(Nc2ncnc3cc4c(nc23)N2CCN(C(=O)/C=C/[C@@H](C)N(C)C)[C@H](CO4)C2)c(F)cc1Oc1ccn2ncnc2c1 [Compound 50, (4R,E)-1-((10S)-4-((4-([1,2,4]triazolo[1,5-a]pyridin-7-yloxy)-2-fluoro-5-methylphenyl)amino)-7,8,10,11-tetrahydro-9H-6,10-methanopyrimido[4′,5′:5,6]pyrido[3,2-b][1,4,7]oxadiazonin-9-yl)-4-(dimethylamino)pent-2-en-1-one] | 62.6
14 | Cc1cc(Nc2ncnc3cc4c(nc23)N2CCN(C(=O)/C=C/CN(C)C)[C@H](CO4)C2)ccc1Oc1cncc(F)c1 [Compound 51] | 3.37
15 | Cc1cc(Nc2ncnc3cc4c(nc23)N2CCN(C(=O)/C=C/CN(C)C)C(CCO4)C2)ccc1Oc1ccn2ncnc2c1 (stereo not shown) [Compound 52, (E)-1-(4-((4-([1,2,4]triazolo[1,5-a]pyridin-7-yloxy)-3-methylphenyl)amino)-7,8,11,12-tetrahydro-6,10-methanopyrimido[4′,5′:5,6]pyrido[3,2-b][1,4,7]oxadiazecin-9(10H)-yl)-4-(dimethylamino)but-2-en-1-one] | 109

Same assay, conditions: Mus musculus, BaF3, 72 h, read-out: Ba/F3 ERBB2 YVMA, IC50, nM

Row | SMILES | IC50 [nM]
16 | CN(C)C/C=C/C(=O)N1CCN2C[C@H]1COc1cc3ncnc(Nc4cc(F)c(Oc5ccn6ncnc6c5)cc4F)c3nc12 [Compound 48, (E)-1-((10S)-4-((4-([1,2,4]triazolo[1,5-a]pyridin-7-yloxy)-2,5-difluorophenyl)amino)-7,8,10,11-tetrahydro-9H-6,10-methanopyrimido[4′,5′:5,6]pyrido[3,2-b][1,4,7]oxadiazonin-9-yl)-4-(dimethylamino)but-2-en-1-one] | 4.85
